# Test results: ChEMBL document CHEMBL1201861, “Genomics of Drug Sensitity in Cancer screening data, Wellcome Trust Sanger Institute”
# Counter-ions that a name gives are not always drawn.
# Key:
# Experiment in all cases: cells
# Format in all cases: functional, cell-based, Homo sapiens
# HEL = conditions: Homo sapiens, HEL;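 further: growth inhibition of HEL cells, read out with a cell viability assay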
# Description: SANGER: Inhibition of human HEL cell growth in a cell viability assay.
# NCI-H1304 = conditions: Homo sapiens, NCI-H1304;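 further: growth inhibition of the cancer cell line, measured in a cell viability assay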
# Description: SANGER: Inhibition of human NCI-H1304 cell growth in a cell viability assay.
# TE-11 = conditions: Homo sapiens, TE-11;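 further: growth inhibition of human TE-11 cells, read out by a cell viability assay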
# Description: SANGER: Inhibition of human TE-11 cell growth in a cell viability assay.
# VA-ES-BJ = conditions: Homo sapiens, VA-ES-BJ;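 further: growth inhibition of the VA-ES-BJ cell line, read out by a cell viability assay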
# Description: SANGER: Inhibition of human VA-ES-BJ cell growth in a cell viability assay.
# CAS-1 = conditions: Homo sapiens, CAS-1;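 further: growth inhibition of CAS-1 cells, measured with a cell viability assay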
# Description: SANGER: Inhibition of human CAS-1 cell growth in a cell viability assay.
# A388 = conditions: Homo sapiens, A388;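 further: growth inhibition of human A388 cells, read out with a cell viability assay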
# Description: SANGER: Inhibition of human A388 cell growth in a cell viability assay.
# JAR = conditions: Homo sapiens, JAR;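 further: growth inhibition of human JAR cells determined with a cell viability assay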
# Description: SANGER: Inhibition of human JAR cell growth in a cell viability assay.
# NCI-H2126 = conditions: Homo sapiens, NCI-H2126;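 further: growth inhibition of the cancer cell line, determined with a cell viability readout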
# Description: SANGER: Inhibition of human NCI-H2126 cell growth in a cell viability assay.
# SNU-C2B = conditions: Homo sapiens, SNU-C2B;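 further: cell viability readout used to measure compound-driven suppression of SNU-C2B cell proliferation, IC50 marking half-maximal growth inhibition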
# Description: SANGER: Inhibition of human SNU-C2B cell growth in a cell viability assay.
# COLO-824 = conditions: Homo sapiens, COLO-824
# Description: SANGER: Inhibition of human COLO-824 cell growth in a cell viability assay.
# LU-134-A = conditions: Homo sapiens, LU-134-A
# Description: SANGER: Inhibition of human LU-134-A cell growth in a cell viability assay.
# TGW = conditions: Homo sapiens, TGW;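 further: growth inhibition of human TGW cells, read out with a cell viability assay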
# Description: SANGER: Inhibition of human TGW cell growth in a cell viability assay.
# PSN1 = conditions: Homo sapiens, PSN1;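 further: suppression of growth of human PSN1 cells, read out by a cell viability assay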
# Description: SANGER: Inhibition of human PSN1 cell growth in a cell viability assay.
# SCH = conditions: Homo sapiens, SCH;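 further: growth inhibition of human SCH cells, read out in a cell viability assay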
# Description: SANGER: Inhibition of human SCH cell growth in a cell viability assay.
# KY821 = conditions: Homo sapiens, KY821;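 further: growth inhibition of human KY821 cells, read out by a cell viability assay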
# Description: SANGER: Inhibition of human KY821 cell growth in a cell viability assay.
# SNU1 = conditions: Homo sapiens, SNU1;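 further: growth inhibition of human NCI-SNU-1 cells, measured with a cell viability assay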
# Description: SANGER: Inhibition of human NCI-SNU-1 cell growth in a cell viability assay.
# KM12 = conditions: Homo sapiens, KM12;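 further: KM12 cell growth inhibition, read out with a cell viability assay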
# Description: SANGER: Inhibition of human KM12 cell growth in a cell viability assay.
# SJSA-1 = conditions: Homo sapiens, SJSA-1;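 further: growth inhibition of human SJSA-1 cells, read out through a cell viability measurement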
# Description: SANGER: Inhibition of human SJSA-1 cell growth in a cell viability assay.
# HCC1187 = conditions: Homo sapiens, HCC1187;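 further: growth inhibition of HCC1187 cells, read out with a cell viability assay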
# Description: SANGER: Inhibition of human HCC1187 cell growth in a cell viability assay.
# A253 cell line = conditions: Homo sapiens, A253;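 further: growth inhibition of A253 cells, read out with a cell viability assay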
# Description: SANGER: Inhibition of human A253 cell growth in a cell viability assay.
# NCI-H526 = conditions: Homo sapiens, NCI-H526;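 further: growth inhibition of the human NCI-H526 cell line, measured by a cell viability assay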
# Description: SANGER: Inhibition of human NCI-H526 cell growth in a cell viability assay.
# LAN-6 = conditions: Homo sapiens, LAN-6;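 further: growth inhibition of LAN-6 cells, determined with a cell viability assay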
# Description: SANGER: Inhibition of human LAN-6 cell growth in a cell viability assay.
# C8166 = conditions: Homo sapiens, C8166;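 further: growth inhibition of human C8166 cells measured by a cell viability assay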
# Description: SANGER: Inhibition of human C8166 cell growth in a cell viability assay.
# no-11 = conditions: Homo sapiens;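 further: growth inhibition of human NO-11 cells, read out with a cell viability assay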
# Description: SANGER: Inhibition of human no-11 cell growth in a cell viability assay.
# Calu-6 = conditions: Homo sapiens, Calu-6;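 further: growth of human Calu-6 cells, read out by a cell viability assay, IC50 marking inhibition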
# Description: SANGER: Inhibition of human Calu-6 cell growth in a cell viability assay.
# SF-126 = conditions: Homo sapiens, SF-126;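 further: growth inhibition of human SF126 cells, read out with a cell viability assay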
# Description: SANGER: Inhibition of human SF126 cell growth in a cell viability assay.
# NMC-G1 = conditions: Homo sapiens, NMC-G1;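 further: growth inhibition of the NMC-G1 cell line, measured with a cell viability read-out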
# Description: SANGER: Inhibition of human NMC-G1 cell growth in a cell viability assay.
# ES6 = conditions: Homo sapiens, ES6;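 further: growth inhibition of human ES6 cells, read out with a cell viability assay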
# Description: SANGER: Inhibition of human ES6 cell growth in a cell viability assay.
# A704 = conditions: Homo sapiens, A704;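 further: growth inhibition of human A704 cells, read out with a cell viability assay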
# Description: SANGER: Inhibition of human A704 cell growth in a cell viability assay.
# MS-1 = conditions: Homo sapiens, MS-1;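 further: growth inhibition of MS-1 cells, read out by cell viability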
# Description: SANGER: Inhibition of human MS-1 cell growth in a cell viability assay.
# D-263MG = conditions: Homo sapiens, D-263MG
# Description: SANGER: Inhibition of human D-263MG cell growth in a cell viability assay.
# SK-N-FI = conditions: Homo sapiens, SK-N-FI;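 further: cell viability assay measuring growth inhibition of human SK-N-FI cells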
# Description: SANGER: Inhibition of human SK-N-FI cell growth in a cell viability assay.
# MFH-ino = conditions: Homo sapiens, MFH-ino;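 further: growth inhibition of human MFH-ino cells, read out by a cell viability assay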
# Description: SANGER: Inhibition of human MFH-ino cell growth in a cell viability assay.
# TE-6 = conditions: Homo sapiens, TE-6;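 further: growth inhibition of TE-6 cells, read out with a cell viability assay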
# Description: SANGER: Inhibition of human TE-6 cell growth in a cell viability assay.
# Becker = conditions: Homo sapiens, Becker;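 further: growth inhibition of Becker cells, read out with a cell viability assay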
# Description: SANGER: Inhibition of human Becker cell growth in a cell viability assay.
# COLO-320-HSR = conditions: Homo sapiens, COLO-320-HSR;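 further: growth inhibition of COLO-320-HSR cells, determined with a cell viability assay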
# Description: SANGER: Inhibition of human COLO-320-HSR cell growth in a cell viability assay.
# LU-139 = conditions: Homo sapiens, LU-139
# Description: SANGER: Inhibition of human LU-139 cell growth in a cell viability assay.
# CTV-1 = conditions: Homo sapiens, CTV-1;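 further: growth inhibition of the cell line, read out with a cell viability assay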
# Description: SANGER: Inhibition of human CTV-1 cell growth in a cell viability assay.
# SNU-5 = conditions: Homo sapiens, SNU-5;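 further: cell viability readout used to measure growth inhibition in human NCI-SNU-5 cells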
# Description: SANGER: Inhibition of human NCI-SNU-5 cell growth in a cell viability assay.
# CTB-1 = conditions: Homo sapiens, CTB-1
# Description: SANGER: Inhibition of human CTB-1 cell growth in a cell viability assay.
# EW-16 = conditions: Homo sapiens, EW-16;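 further: growth inhibition of human EW-16 cells, read out as cell viability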
# Description: SANGER: Inhibition of human EW-16 cell growth in a cell viability assay.
# HCC2157 = conditions: Homo sapiens, HCC2157;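 further: growth inhibition of the cancer cell line, read out as cell viability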
# Description: SANGER: Inhibition of human HCC2157 cell growth in a cell viability assay.
# KGN = conditions: Homo sapiens, KGN;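 further: growth inhibition of KGN cells, read out with a cell viability assay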
# Description: SANGER: Inhibition of human KGN cell growth in a cell viability assay.
# LB2518-MEL = conditions: Homo sapiens, LB2518-MEL;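 further: growth inhibition of human LB2518-MEL cells, measured with a cell viability assay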
# Description: SANGER: Inhibition of human LB2518-MEL cell growth in a cell viability assay.
# HT-144 = conditions: Homo sapiens, HT-144
# Description: SANGER: Inhibition of human HT-144 cell growth in a cell viability assay.
# BT-474 = conditions: Homo sapiens, BT-474
# Description: SANGER: Inhibition of human BT-474 cell growth in a cell viability assay.
# RXF 393 = conditions: Homo sapiens, RXF 393;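 further: growth inhibition of human RXF 393 cells, read out with a cell viability assay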
# Description: SANGER: Inhibition of human RXF393 cell growth in a cell viability assay.
# ALL-PO = conditions: Homo sapiens, ALL-PO;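 further: growth inhibition of ALL-PO cells, read out by a cell viability assay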
# Description: SANGER: Inhibition of human ALL-PO cell growth in a cell viability assay.
# EOL1 = conditions: Homo sapiens, EOL1;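 further: growth inhibition of EoL-1 cells, read out by a cell viability assay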
# Description: SANGER: Inhibition of human EoL-1-cell cell growth in a cell viability assay.
# HCC2218 = conditions: Homo sapiens, HCC2218;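 further: cell viability assay read-out, with IC50 given as the concentration that inhibits growth of the cell line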
# Description: SANGER: Inhibition of human HCC2218 cell growth in a cell viability assay.
smiles,measurement,setting,value
COC1=CC(c2cc3ccccc3[nH]2)=N/C1=C\c1[nH]c(C)cc1C [OBATOCLAX MESYLATE],IC50,HEL,154 nM
same,IC50,NCI-H1304,1640 nM
same,IC50,TE-11,302 nM
same,IC50,VA-ES-BJ,700 nM
same,IC50,CAS-1,1090 nM
same,IC50,A388,57 nM
same,IC50,JAR,> 16 µM
same,IC50,NCI-H2126,2230 nM
same,IC50,SNU-C2B,868 nM
same,IC50,COLO-824,678 nM
same,IC50,LU-134-A,> 16 µM
same,IC50,TGW,17.4 nM
same,IC50,PSN1,< 62.5 nM
same,IC50,SCH,> 16 µM
same,IC50,KY821,> 16 µM
same,IC50,SNU1,121 nM
same,IC50,KM12,318 nM
same,IC50,SJSA-1,147 nM
same,IC50,HCC1187,1710 nM
same,IC50,A253 cell line,575 nM
same,IC50,NCI-H526,2630 nM
same,IC50,LAN-6,1900 nM
same,IC50,C8166,474 nM
same,IC50,no-11,1510 nM
same,IC50,Calu-6,90.3 nM
same,IC50,SF-126,273 nM
same,IC50,NMC-G1,319 nM
same,IC50,ES6,144 nM
same,IC50,A704,91.5 nM
same,IC50,MS-1,1290 nM
same,IC50,D-263MG,3.15 µM
same,IC50,SK-N-FI,14.9 µM
same,IC50,MFH-ino,247 nM
same,IC50,TE-6,1040 nM
same,IC50,Becker,1640 nM
same,IC50,COLO-320-HSR,52.9 nM
same,IC50,LU-139,6.08 µM
same,IC50,CTV-1,75.2 nM
same,IC50,SNU-5,856 nM
same,IC50,CTB-1,75.9 nM
same,IC50,EW-16,39.1 nM
same,IC50,HCC2157,1140 nM
same,IC50,KGN,261 nM
same,IC50,LB2518-MEL,234 nM
same,IC50,HT-144,< 62.5 nM
same,IC50,BT-474,175 nM
same,IC50,RXF 393,1770 nM
same,IC50,ALL-PO,242 nM
same,IC50,EOL1,115 nM
same,IC50,HCC2218,2410 nM
Cc1cc([N+](=O)[O-])ccc1NS(=O)(=O)c1cc(Cl)ccc1Cl,IC50,HEL,6960 nM
same,IC50,NCI-H1304,> 32000 nM
same,IC50,TE-11,> 32000 nM
same,IC50,VA-ES-BJ,1230 nM
same,IC50,CAS-1,8880 nM
same,IC50,A388,4930 nM
same,IC50,JAR,23 µM
same,IC50,NCI-H2126,24800 nM
same,IC50,SNU-C2B,4290 nM
same,IC50,COLO-824,18100 nM
same,IC50,LU-134-A,> 32 µM
same,IC50,TGW,> 32000 nM
same,IC50,PSN1,3220 nM
same,IC50,SCH,20.5 µM
same,IC50,KY821,> 32 µM
same,IC50,SNU1,10800 nM
same,IC50,KM12,5990 nM
same,IC50,SJSA-1,5700 nM
same,IC50,HCC1187,20800 nM
same,IC50,A253 cell line,5930 nM
same,IC50,NCI-H526,28200 nM
same,IC50,LAN-6,20400 nM
same,IC50,C8166,6100 nM
same,IC50,no-11,6740 nM
same,IC50,Calu-6,831 nM
same,IC50,SF-126,9880 nM
same,IC50,NMC-G1,9890 nM
same,IC50,ES6,3030 nM
same,IC50,A704,2580 nM
same,IC50,MS-1,16400 nM
same,IC50,D-263MG,10.7 µM
same,IC50,SK-N-FI,16.7 µM
same,IC50,MFH-ino,506 nM
same,IC50,TE-6,19200 nM
same,IC50,Becker,16500 nM
same,IC50,COLO-320-HSR,17600 nM
same,IC50,LU-139,12.9 µM
same,IC50,CTV-1,5060 nM
same,IC50,SNU-5,> 32000 nM
same,IC50,CTB-1,30500 nM
same,IC50,EW-16,4590 nM
same,IC50,HCC2157,8760 nM
same,IC50,KGN,4200 nM
same,IC50,LB2518-MEL,1160 nM
same,IC50,HT-144,2940 nM
same,IC50,BT-474,4420 nM
same,IC50,RXF 393,> 32000 nM
same,IC50,ALL-PO,2340 nM
same,IC50,EOL1,4950 nM
same,IC50,HCC2218,3440 nM
N#Cc1c(O)c2c(-c3ccc(-c4ccccc4O)cc3)csc2[nH]c1=O,IC50,HEL,107 nM
same,IC50,NCI-H1304,634 nM
same,IC50,TE-11,> 1020 nM
same,IC50,VA-ES-BJ,> 1020 nM
same,IC50,CAS-1,193 nM
same,IC50,A388,> 1020 nM
same,IC50,JAR,> 1.02 µM
same,IC50,NCI-H2126,> 1020 nM
same,IC50,SNU-C2B,> 1020 nM
same,IC50,COLO-824,328 nM
same,IC50,LU-134-A,0.231 µM
same,IC50,TGW,311 nM
same,IC50,PSN1,> 1020 nM
same,IC50,SCH,> 1.02 µM
same,IC50,KY821,0.817 µM
same,IC50,SNU1,311 nM
same,IC50,KM12,32.1 nM
same,IC50,SJSA-1,> 1020 nM
same,IC50,HCC1187,> 1020 nM
same,IC50,A253 cell line,> 1020 nM
same,IC50,NCI-H526,468 nM
same,IC50,LAN-6,> 1020 nM
same,IC50,C8166,66.2 nM
same,IC50,no-11,> 1020 nM
same,IC50,Calu-6,> 1020 nM
same,IC50,SF-126,> 1020 nM
same,IC50,NMC-G1,> 1020 nM
same,IC50,ES6,> 1020 nM
same,IC50,A704,> 1020 nM
same,IC50,MS-1,827 nM
same,IC50,D-263MG,> 1.02 µM
same,IC50,SK-N-FI,> 1.02 µM
same,IC50,MFH-ino,> 1020 nM
same,IC50,TE-6,> 1020 nM
same,IC50,Becker,> 1020 nM
same,IC50,COLO-320-HSR,> 1020 nM
same,IC50,LU-139,> 1.02 µM
same,IC50,CTV-1,73 nM
same,IC50,SNU-5,944 nM
same,IC50,CTB-1,> 1020 nM
same,IC50,EW-16,> 1020 nM
same,IC50,HCC2157,105 nM
same,IC50,KGN,> 1020 nM
same,IC50,LB2518-MEL,> 1020 nM
same,IC50,HT-144,> 1020 nM
same,IC50,BT-474,151 nM
same,IC50,RXF 393,> 1020 nM
same,IC50,ALL-PO,57.9 nM
same,IC50,EOL1,95.6 nM
same,IC50,HCC2218,342 nM
